Consider three molecules from patent US20050019267A1, “Macromolecular imaging agents for liver imaging” (priority 2001, published 2005).

For data set [1] the following is noted: in vivo; cited from earlier work.
The test system of data set [2] is LS174T intrahepatic micro-metastases. Type of data set: in vivo.
[3] abbreviates: 0.03 mmolGd/kg DAB-Am64-(1B4M-Gd)64 or 0.1 mmolGd/kg dimeglumine-DTPA-Gd, dynamic MRI 0-25 min.

Molecules are shown by their SMILES.

For `CCOc1ccc(CC(CN(CCN(CC(=O)[O-])CC(=O)[O-])CC(=O)[O-])N(CC(=O)[O-])CC(=O)[O-])cc1.[Gd+3].[Na+].[Na+]` (stereo not shown) [Eovist, [Gd(EOB-DTPA)(H2O)]^2−], in data set [1], the “excreted via the liver” value is “roughly 50%”.

For the molecule `CNC[C@H](O)[C@@H](O)[C@H](O)[C@H](O)CO.CNC[C@H](O)[C@@H](O)[C@H](O)[C@H](O)CO.O=C([O-])CN(CCN(CC(=O)[O-])CC(=O)O)CCN(CC(=O)O)C(COCc1ccccc1)C(=O)[O-].[Gd+3]` (stereo not shown) [MultiHance, [Gd(BOPTA)(H2O)]^2−], the “excreted via the liver” value in data set [1] is 2-4%.

Take `CNC[C@H](O)[C@@H](O)[C@H](O)[C@H](O)CO.CNC[C@H](O)[C@@H](O)[C@H](O)[C@H](O)CO.O=C([O-])CN(CCN(CC(=O)[O-])CC(=O)O)CCN(CC(=O)[O-])CC(=O)O.[Gd+3]` [dimeglumine-DTPA-Gd]: in data set [2] (setting [3]), the “MRI signal intensity for blood vessels (portal and hepatic veins)” value is “much lower”; the “MRI signal intensity in the tumors” value is given as “comparable”. The “MRI signal intensity in the liver” value in data set [2] (0.03 mmolGd/kg DAB-Am64-(1B4M-Gd)64 or 0.1 mmolGd/kg dimeglumine-DTPA-Gd, dynamic MRI 0-25 min, comparator worded relative to DAB agent) is “much lower”. Besides, the “liver-to-tumor image intensity ratio” value in data set [2] (0.1 mmolGd/kg dimeglumine-DTPA-Gd versus 0.03 mmolGd/kg DAB-Am64-(1B4M-Gd)64, all time points) is given as “significantly less”. The “tumors with more than 2 mm diameter detected by MRI (of 18)” value in data set [2] (same mice, n=5, 1-day interval, 0.03 mmolGd/kg DAB agent, 0.1 mmolGd/kg dimeglumine-DTPA-Gd) turned out to be 18.
